The text below walks through data of patent US8501908B2, “Immunogenic peptides” (priority 2008, dated 2013).

Common to all, as to assay type: cell-based, human
The subject of experiment [1] is PBMCs from DLBCL patients. The experiment is described as follows: γ-IFN release ELISPOT, PBMCs of DLBCL patients after short-term culture with peptides. Also on record: γ-IFN response to peptides: unit not given here. The conditions noted are these: for order of immunogenicity for eliciting CTLs / order of immunogenicity for eliciting TH cell responses: from γ-IFN release assay; for order of immunogenicity for eliciting CTLs: order PASD1(1), PASD1(2), PASD1(5), PASD1(3), PASD1(4); for γ-IFN response to peptides: triplicate ELISPOT; for TH γ-IFN response to peptides at time of diagnosis and after one year: DLBCL patients (FIG. 5), short term culture, p<0.05; for immunogenicity among patients studied: TH γ-IFN response, DLBCL patients; for γ-IFN response to the PASD1(1) CTL peptide elicited by culture with the peptide: cells cultured 8-10 days with PASD1(6) or PASD1(7), Table 4; for order of immunogenicity for eliciting TH cell responses: order PASD1(6), PASD1(7), PASD1(10), PASD1(9), PASD1(8).

In experiment [2] the test system is OCI-Ly3 (DLBCL) cell line. The experiment is described as follows: 51Cr release cytolytic assay of peptide-specific CTL/TH cell lines. The conditions noted are these: for lysis by CTL lines raised against the peptide: PASD1-positive HLA-A*0201-negative OCI-Ly3, 4 h 51Cr release; for lysis by TH cell lines specific for the peptide: PASD1-positive OCI-Ly3, 18 h 51Cr release. The protocol:
(§1) A conventional ^51Cr-labelling release assay was used to investigate the ability of CTL and TH cell lines generated from DLBCL patients to lyse PASD1-positive tumour target cells. The target cell lines, consisting of the OCI-Ly3, SUDHL-6, KM-H2 and Thiel, were radiolabelled with 100 μCi ^51Cr for 90 minutes. […] The incubation period of the TH with the target cells was increased to 18 hours. Maximum ^51Cr release was determined following the addition of 10% Triton-X to the radiolabelled target cells and spontaneous release was assessed by adding RPMI1640/FCS to the target cells. The supernatant was harvested and counted in a gamma-counter (Beckmann, Heidelberg, Germany).

Experiment [3] has as its system SUDHL-6 (DLBCL) cell line. Described as above. The conditions noted are these: PASD1-negative SUDHL-6; for lysis by CTL lines raised against the peptide: 4 h 51Cr release; for lysis by TH cell lines specific for the peptide: 18 h 51Cr release. The protocol: as §1
Experiment [4] relates to Thiel (myeloma) cell line. Described as above. The following applies: for lysis by CTL lines raised against the peptide: HLA-A*0201-positive PASD1-positive Thiel, 4 h 51Cr release, four patients; for lysis by TH cell lines specific for the peptide: PASD1-positive Thiel, 18 h 51Cr release. The protocol: as §1
For experiment [5], the system named is KM-H2 (HL) cell line. The experiment is described as follows: 51Cr release cytolytic assay of peptide-specific CTL cell lines. The following applies: HLA-A*0201-negative PASD1-positive KM-H2; 4 h 51Cr release. The protocol:
as §1

Experiment [6] has as its system PBMCs from healthy donors. The experiment is described as follows: γ-IFN release ELISPOT, PBMCs of healthy donors after short-term culture with peptides. The following applies: triplicate ELISPOT, ± SD.
The mark [7] stands for this setting: PBMCs from a DLBCL patient stimulated in culture with PASD1(6) or PASD1(7) peptides, +/− SD.
Setting [8] is: Patient 1, De novo DLBCL, DRB1-0102, group Significant response, ± SD.
[9] abbreviates: Patient 2, De novo DLBCL, DRB1-0101, group Significant response, ± SD.
Where [10] appears, read: Patient 3, De novo DLBCL, DRB1-0301, group Significant response, ± SD.
Where [11] appears, read: Patient 4, De novo DLBCL, DRB1-0102, group Significant response, ± SD.
[12] abbreviates: Patient 8, De novo DLBCL, DRB1-1501, group Significant response, ± SD.
Where [13] appears, read: Patient 9, De novo DLBCL, DRB1-0301, group Significant response, ± SD.
[14] abbreviates: Patient 10, De novo DLBCL, DRB1-0101, group No significant response, ± SD.
[15] abbreviates: Patient 12, De novo DLBCL, DRB1-0401, group Significant response, ± SD.
[16] abbreviates: Patient 15, De novo DLBCL, DRB1-1301, group No significant response, ± SD.
Where [17] appears, read: Patient 17, De novo DLBCL, DRB1-0301, group No significant response, ± SD.
[18] abbreviates: Patient 18, De novo DLBCL, DRB1-0401, group No significant response, ± SD.
Where [19] appears, read: Patient 19, De novo DLBCL, DRB1-1104, group No significant response, ± SD.
Where [20] appears, read: Patient 20, De novo DLBCL, DRB1-1303, group No significant response, ± SD.
[21] abbreviates: Patient 21, De novo DLBCL, DRB1-0301, group No significant response, ± SD.
Where [22] appears, read: Patient 24, De novo DLBCL, DRB1-1301, group Significant response, ± SD.
[23] abbreviates: Patient 28, Trans DLBCL, DRB1-0701, group No significant response, ± SD.
[24] abbreviates: Patient 37, Trans DLBCL, DRB1-0103, group Significant response, ± SD.
Where [25] appears, read: Patient 48, T-cell rich DLBCL, DRB1-0301, group Significant response, ± SD.
The mark [26] stands for this setting: Patient 61, De novo DLBCL, DRB1-0401, group No significant response, ± SD.

For “YLVGNVCIL (listed as Homo sapiens) [PASD1(2)]”, in experiment [1], the “order of immunogenicity for eliciting CTLs” value (from here on “order … for eliciting CTLs”) is recorded as “more immunogenic”. In addition, the “lysis by CTL lines raised against the peptide” value (shortened to “lysis by CTL lines raised”) in experiment [2] is “not”; in experiment [3], “not”; in experiment [4], “dose dependent lysis”; in experiment [5], “not”.

“QLLDGFMITL (listed as Homo sapiens) [PASD1(1)]”: the “γ-IFN response to peptides” value in experiment [1] (setting [7]) is 30 +/− 4. Moreover, the “order … for eliciting CTLs” value in experiment [1] is given as “most immunogenic”. Besides, the “lysis by CTL lines raised” value in experiment [2] is given as “not”; in experiment [3], “not”; in experiment [4], “dose dependent lysis”; in experiment [5], “not”. Moreover, in experiment [4] (effector:target ratio of 5:1, all four patients), the “cytolytic effect of peptide-stimulated cells” value was “significant”.

With “ELSDSLGPV (listed as Homo sapiens) [PASD1(5)]”, the “order … for eliciting CTLs” value in experiment [1] is reported as “more immunogenic”. For the same sequence, the “lysis by CTL lines raised” value in experiment [2] was “not”; in experiment [3], “not”; in experiment [4], “dose dependent lysis”; in experiment [5], “not”.

As to “DGFMITLSTDGVIICVAENI (listed as Homo sapiens) [PASD1(7)]”, the “TH γ-IFN response to peptides at time of diagnosis and after one year” value in experiment [1] is on record as “significant”. The “γ-IFN response to peptides” value in experiment [1] (setting [7]) is on record as 26 +/− 2; in experiment [1] (setting [8]), 28 ± 4; in experiment [1] (setting [9]), 46 ± 8; in experiment [1] (setting [10]) it was 26 ± 4; in experiment [1] (setting [11]) it was 44 ± 4; in experiment [1] (setting [12]) it was 18 ± 2. Further, the “γ-IFN response to peptides” value in experiment [1] (setting [13]) was 18 ± 2; in experiment [1] (setting [14]), 26 ± 2; in experiment [1] (setting [15]), 36 ± 4; in experiment [1] (setting [16]), 32 ± 2; in experiment [1] (setting [17]), 18 ± 4; in experiment [1] (setting [18]), 26 ± 2. For the same sequence, the “γ-IFN response to peptides” value in experiment [1] (setting [19]) stood at 26 ± 2; in experiment [1] (setting [20]), 14 ± 2; in experiment [1] (setting [21]), 10 ± 2; in experiment [1] (setting [22]), 38 ± 4; in experiment [1] (setting [23]), 22 ± 6; in experiment [1] (setting [24]), 32 ± 6. The “γ-IFN response to peptides” value in experiment [1] (setting [25]) was 56 ± 6; in experiment [1] (setting [26]), 10 ± 4; in experiment [6] (Healthy donor HD 1, DRB1-0102), 20 ± 2; in experiment [6] (Healthy donor HD 2, DRB1-0401), 8 ± 2; in experiment [6] (Healthy donor HD 3, DRB1-0401), 10 ± 2; in experiment [6] (Healthy donor HD 4, DRB1-0301), 20 ± 2. In addition, the “γ-IFN response to peptides” value in experiment [6] (Healthy donor HD 5, DRB1-0301) is recorded as 22 ± 2. The “immunogenicity among patients studied” value in experiment [1] was “immunogenic in the majority of patients”. The “γ-IFN response to the PASD1(1) CTL peptide elicited by culture with the peptide” value in experiment [1] was “comparable”. Also, in experiment [1], the “order of immunogenicity for eliciting TH cell responses” value is reported as “most immunogenic”. Also, the “lysis by TH cell lines specific for the peptide” value in experiment [2] is “Significant dose dependent lysis”; in experiment [3] it was “no significant lysis”; in experiment [4], “Significant dose dependent lysis”.

Turning to “DYFNQVTLQLLDGFMITLST (listed as Homo sapiens) [PASD1(6)]”, the “TH γ-IFN response to peptides at time of diagnosis and after one year” value in experiment [1] was “significant”. Besides, the “γ-IFN response to peptides” value in experiment [1] (setting [7]) was 32 +/− 2; in experiment [1] (setting [8]) it was 52 ± 6; in experiment [1] (setting [9]) it was 32 ± 4; in experiment [1] (setting [10]), 34 ± 4; in experiment [1] (setting [11]) it was 58 ± 8; in experiment [1] (setting [12]), 36 ± 6. Besides, the “γ-IFN response to peptides” value in experiment [1] (setting [13]) is 22 ± 6; in experiment [1] (setting [14]) it was 30 ± 8; in experiment [1] (setting [15]), 44 ± 6; in experiment [1] (setting [16]), 28 ± 4; in experiment [1] (setting [17]) it was 20 ± 2; in experiment [1] (setting [18]), 14 ± 2. Also, the “γ-IFN response to peptides” value in experiment [1] (setting [19]) was 22 ± 2; in experiment [1] (setting [20]), 10 ± 2; in experiment [1] (setting [21]), 18 ± 2; in experiment [1] (setting [22]) it was 22 ± 4; in experiment [1] (setting [23]), 28 ± 4; in experiment [1] (setting [24]) it was 38 ± 4. Further, the “γ-IFN response to peptides” value worked out at 48 ± 4 in experiment [1] (setting [25]); 22 ± 2 in experiment [1] (setting [26]); 14 ± 2 in experiment [6] (Healthy donor HD 1, DRB1-0102); 10 ± 2 in experiment [6] (Healthy donor HD 2, DRB1-0401); 5 ± 2 in experiment [6] (Healthy donor HD 3, DRB1-0401); 14 ± 2 in experiment [6] (Healthy donor HD 4, DRB1-0301). For the same sequence, the “γ-IFN response to peptides” value in experiment [6] (Healthy donor HD 5, DRB1-0301) worked out at 24 ± 2. Moreover, the “immunogenicity among patients studied” value in experiment [1] is “immunogenic in the majority of patients”. In experiment [1], the “γ-IFN response to the PASD1(1) CTL peptide elicited by culture with the peptide” value is listed as “comparable”. The “order of immunogenicity for eliciting TH cell responses” value in experiment [1] was “most immunogenic”. For the same sequence, the figures for the “lysis by TH cell lines specific for the peptide” value in experiment [2], in experiment [3] and in experiment [4] were “Significant dose dependent lysis”, “no significant lysis” and “Significant dose dependent lysis”, respectively.
